Literature values as cited in patent US20030008851A1, “Acne treatment including dual-package system” (priority 2001, published 2003).

Key:
[1] = not given; remark: listed apart in the source

| pH of the solution produced (1 gram in about 460 ml of water at room temperature) | volume of water dissolving 1 gram (1 gram, water, room temperature) | solubility in water (water, room temperature) | volume of alcohol dissolving 1 gram ([1]; 1 gram) | Compound | solubility in water (in words) (water) | solubility in alcohol (in words) [1] |
| --- | --- | --- | --- | --- | --- | --- |
|  |  |  |  | O=C(OOC(=O)c1ccccc1)c1ccccc1 [Benzoyl peroxide] | sparingly soluble | sparingly soluble |
| 2.4 | about 460 ml | about 0.2 % by weight | about 2.7 ml | O=C(O)c1ccccc1O [Salicylic acid] | sparingly soluble |  |
